Test results reported in paper PMC10641817, “Ligand Sulfur Oxidation State Progressively Alters Galectin-3-Ligand Complex Conformations To Induce Affinity-Influencing Hydrogen Bonds” (Journal of Medicinal Chemistry, 2023).
“And” between values parts separate entries of the source, which are not always exact repeats. Equal entries are not always repeated.

Key:
[1] = solubility in attempts at crystallographic structural analyses; assay type: physicochemical; settings: for crystallography with galectin-3C
Galectin-3 Wild-Type = Galectin-3 Wild-Type (Homo sapiens, UniProt P17931); experiment: competitive fluorescence polarization assay, galectin-3 wild-type; assay type: binding
Galectin-3 Wild-Type, sequence (P17931 whole entry): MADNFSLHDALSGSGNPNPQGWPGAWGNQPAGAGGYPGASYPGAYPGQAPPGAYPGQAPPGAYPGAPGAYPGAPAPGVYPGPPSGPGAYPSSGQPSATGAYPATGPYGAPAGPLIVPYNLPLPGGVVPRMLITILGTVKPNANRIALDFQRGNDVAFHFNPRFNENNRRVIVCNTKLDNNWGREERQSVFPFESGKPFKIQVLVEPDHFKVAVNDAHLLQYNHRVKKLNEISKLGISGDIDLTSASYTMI
Method: (§1) Fluorescence polarization experiments were carried out either with a POLARStar plate reader and FLUOstar Galaxy software or with a PheraStarFS plate reader and PHERAstar Mars version 2.10 R3 software (BMG, Offenburg, Germany). The dissociation constant (Kd) values were determined in PBS as described earlier.[13],[18] Compounds were dissolved in neat DMSO at 20 mM and diluted in PBS to 3–6 different concentrations to be tested in duplicate.

galectin-3 R144S = galectin-3 R144S (Homo sapiens, UniProt P17931, R144S); experiment: competitive fluorescence polarization assay, galectin-3 R144S mutant; assay type: binding
galectin-3 R144S, sequence (P17931 whole entry R144S): as the sequence (P17931 whole entry) above, with R144S counted along it
Method: as §1, with “duplicate. Average Kd values and SEMs were calculated from 2 to 8 single-triple point measurements showing between 20 and 80% inhibition.” for “duplicate.”

galectin-3 R144K = galectin-3 R144K (Homo sapiens, UniProt P17931, R144K); experiment: competitive fluorescence polarization assay, galectin-3 R144K mutant; assay type: binding
galectin-3 R144K, sequence (P17931 whole entry R144K): as the sequence (P17931 whole entry) above, with R144K counted along it
Method: as §1, with “duplicate. Average Kd values and SEMs were calculated from 2 to 8 single-triple point measurements showing between 20 and 80% inhibition.” for “duplicate.”

[2] = molecular target: T1, galectin-3C (the C-terminal domain of galectin-3) (Homo sapiens, UniProt P17931); experiment: isothermal titration calorimetry (ITC) with galectin-3C; assay type: binding; settings: 301 K
T1 construct: galectin-3C (the C-terminal domain of galectin-3)
T1 sequence (P17931 118-248 limits assumed): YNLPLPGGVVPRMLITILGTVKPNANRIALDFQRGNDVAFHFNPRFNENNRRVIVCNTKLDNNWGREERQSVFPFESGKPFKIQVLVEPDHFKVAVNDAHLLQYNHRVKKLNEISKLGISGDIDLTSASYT
Method: Stock solutions of the ligands were prepared in a buffer at 5 mM. The ligands were diluted with buffer to concentrations between 2 and 3 mM. […] All thermograms were integrated using NITPIC, the titration curves were fitted using SEDPHAT with error estimates using the automatic confidence interval search with projection method, and all figures were made in GUSSI.

Cc1ccc(S[C@@H]2O[C@H](CO)[C@H](O)[C@H](n3cc(Sc4ccccc4)nn3)[C@H]2O)cc1 [4a, p-Methylphenyl 3-deoxy-3-[4-phenylsulfane-1H-1,2,3-triazol-1-yl] 1-thio-β-D-galactopyranoside]
solubility [1]: insufficient solubility

Cc1ccc(S[C@@H]2O[C@H](CO)[C@H](O)[C@H](n3cc([S+]([O-])c4ccccc4)nn3)[C@H]2O)cc1 (stereo partly drawn) [4b, p-Methylphenyl 3-deoxy-3-[4-phenylsulfinyl-1H-1,2,3-triazole-1yl] 1-thio-β-D-galactopyranoside]
inhibition at the highest tested concentration (Galectin-3 Wild-Type; 2 mM, fluorescence polarization, galectin-3): b Weak inhibition at the highest tested concentration of 4b (2 mM) did not allow for accurate determination of the Kd value.
Kd (Galectin-3 Wild-Type; Table 1, galectin-3 wild-type, fluorescence polarization in PBS): > 600 µM
solubility [1]: insufficient solubility

Cc1ccc(S[C@@H]2O[C@H](CO)[C@H](O)[C@H](n3cc(S(=O)(=O)c4ccccc4)nn3)[C@H]2O)cc1 [4c, p-Methylphenyl 3-deoxy-3-[4-phenylsulfonyl-1H-1,2,3-triazole-1yl] 1-thio-β-D-galactopyranoside]
Kd (galectin-3 R144S): 600 ± 80 µM
Kd (galectin-3 R144K): 250 ± 6 µM
solubility [1]: insufficient solubility

[O-][S+](c1ccccc1)c1cn([C@H]2[C@@H](O)[C@@H](CO)O[C@@H](S[C@@H]3O[C@H](CO)[C@@H](O)[C@H](O)[C@H]3O)[C@@H]2O)nn1 (stereo partly drawn) [6b, 3′-Deoxy-3′-[4-phenylsulfinyl-1H-1,2,3-triazol-1-yl] -β-D-galactopyranosyl-1-thio-β-D-glucopyranoside]
Kd [2]: 94.2 µM and 94 µM
